According to paper PMC11662004 (Communications Chemistry, 2024):

How the values were obtained:
NgTet1 = target: T1, NgTet1 (Naegleria gruberi, UniProt D2W6T1); assay: AlphaScreen competition assay with biotinylated 5mC dsDNA; type: binding; conditions: 100 nM NgTet1, 50 nM 5mC dsDNA; for competition pIC50 NgTet1: n = 2
T1 construct: His6-tagged full-length Naegleria gruberi NgTet1 (321 a. a.) protein with a thrombin cleavage site; made in house; host or cells: E. coli BL21(DE3)
T1 sequence (D2W6T1 1-321): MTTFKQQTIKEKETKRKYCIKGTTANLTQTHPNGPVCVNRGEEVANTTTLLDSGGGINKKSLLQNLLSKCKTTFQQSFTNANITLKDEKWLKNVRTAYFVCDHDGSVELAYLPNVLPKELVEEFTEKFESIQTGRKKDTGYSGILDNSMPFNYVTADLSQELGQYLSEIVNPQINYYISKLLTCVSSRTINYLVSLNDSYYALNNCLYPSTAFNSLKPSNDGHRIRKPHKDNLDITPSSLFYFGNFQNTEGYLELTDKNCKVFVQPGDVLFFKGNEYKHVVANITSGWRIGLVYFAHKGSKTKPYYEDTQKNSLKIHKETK
Method: (§1) AlphaScreen™ Histidine (Nickel Chelate) Detection Kit was used to evaluate displacement of […] (^5mC dsDNA)[33],[34]. Competitor DNA oligomers in assay buffer were manually dispensed onto 384-well ProxiPlates (5 μL) in a 2-fold dilution series. His6-tagged NgTet1 or TET2CDΔLCI in assay buffer was added (5 μL), and the mixture was pre-incubated with the competitor DNA at room temperature for 10 min. Cofactors and biotinylated ^5mC dsDNA in assay buffer were added (5 μL), and the mixture was further incubated at room temperature for 10 min. A mixture of AlphaScreen beads (1:62.5 dilution) in assay buffer was added (5 μL), and the full mixture was incubated at room temperature for 1 h. The final mixtures (20 μL) contained 100 nM NgTet1 (50 nM ^5mC dsDNA) or 12.5 nM TET2CDΔLCI (12.5 nM ^5mC dsDNA), 50 μM sodium L-ascorbate, 5 μM (NH4)2Fe(SO4)2, and 5 μM disodium NOG in assay buffer (50 mM HEPES [pH 7.3], 150 mM NaCl, 0.1% v/v BSA, 0.01% v/v Tween® 20). For the assay interference counter screen, His6-tagged TET protein and biotinylated ^5mC dsDNA were replaced with 1.6 nM biotinylated His6 peptide. Chemiluminescence was measured on a PHERAstar FS/FSX (BMG Labtech) equipped with an AlphaScreen 680 570 module. All AlphaScreen bead manipulations were performed under subdued lighting. Inhibition data was normalised to reactions containing no competitor and fitted using “log(inhibitor) vs. response - Variable slope (four parameters)” non-linear regression model on GraphPad Prism 5. […]
(§2) Fig. S5 TETs bind to DNA in a sequence- and modification-independent manner. A binding assay between a biotinylated 5mC dsDNA oligomer and His6-tagged TET was developed using AlphaScreen Histidine (Nickel Chelate) assay. […] Conditions: a 100 nM NgTet1 (50 nM 5mC dsDNA), b 12.5 nM TET2CDΔLCI (12.5 nM 5mC dsDNA), c 1.6 nM biotinylated His6 peptide. Each assay was supplemented with 50 μM sodium L-ascorbate, 5 μM (NH4)2Fe(SO4)2, and 5 μM disodium NOG. Data shown as the mean of three to four experimental replicates (n = 3–4; mean ± SD); tabulated data reported as the mean of two independent replicates (n = 2).

TET2CDΔLCI = target: T2, TET2CDΔLCI (Homo sapiens, UniProt Q6N021); assay: as above; type: binding; conditions: 12.5 nM TET2CDΔLCI, 12.5 nM 5mC dsDNA; for competition pIC50 TET2CDΔLCI: n = 2
T2 construct: FLAG-[thrombin cleavage site]-SUMO (N); made in house; host or cells: E. coli
Method: as §1, §2

| Substance | IC50 (NgTet1) [µM] | competition pIC50 NgTet1 (NgTet1) | IC50 (TET2CDΔLCI) [µM] | competition pIC50 TET2CDΔLCI (TET2CDΔLCI) |
| --- | --- | --- | --- | --- |
| 5HC DNA: non-methylated DNA of the same sequence, 5'-ACC ACC GGT GGT-3', non-substrate (DNA ACCACCGGTGGT; DNA, backbone not given here) | 57.5 | 4.24 | 8.91 | 5.05 |
| AT DNA: double-stranded self-complementary 5'-ACC ACA TGT GGT-3', CpG replaced by ApT (DNA ACCACATGTGGT; DNA, backbone and methylation of C not given here; self-complementary duplex) | 56.2 | 4.25 | 4.57 | 5.34 |
